Data taken from the NIST ThermoML archive (doi:10.1021/acs.jced.7b00377).
Numbers after ± are expanded uncertainties.

What was measured:
[1] = Liquid; for mass density: 101.33 kPa, Pycnometric method; for vapor or sublimation pressure: Ebulliometric method (Recirculating still)
[2] = refractive index (Na D-line) (dimensionless); settings: 298.15 K; 101.33 kPa; Liquid; Standard Abbe refractometry

mass density ([1]; 293.15 K) | vapor or sublimation pressure ([1]; 381.08 K) | refractive index [2] | mass density ([1]; 298.15 K) | vapor or sublimation pressure ([1]; 320.54 K) | vapor or sublimation pressure ([1]; 335.1 K) | vapor or sublimation pressure ([1]; 344.53 K) | vapor or sublimation pressure ([1]; 351.76 K) | vapor or sublimation pressure ([1]; 359.38 K) | vapor or sublimation pressure ([1]; 370.93 K) | vapor or sublimation pressure ([1]; 379.83 K) | vapor or sublimation pressure ([1]; 386.16 K) | vapor or sublimation pressure ([1]; 393.18 K) | vapor or sublimation pressure ([1]; 397.46 K) | vapor or sublimation pressure ([1]; 401.87 K) | vapor or sublimation pressure ([1]; 405.77 K) | vapor or sublimation pressure ([1]; 410.02 K) | vapor or sublimation pressure ([1]; 390.9 K) | Compound
801.8 ± 0.6 kg/m3 | 101.33 ± 0.7 kPa | 1.3939 ± 0.0004 |  |  |  |  |  |  |  |  |  |  |  |  |  |  |  | CC(C)CO [2-methyl-1-propanol]
 |  | 1.3873 ± 0.0004 | 823.8 ± 0.6 kg/m3 | 5 ± 0.05 kPa | 10 ± 0.06 kPa | 15 ± 0.09 kPa | 20.02 ± 0.12 kPa | 26.67 ± 0.17 kPa | 39.9 ± 0.23 kPa | 53.33 ± 0.3 kPa | 64.8 ± 0.37 kPa | 79.6 ± 0.44 kPa | 89.9 ± 0.5 kPa | 101.33 ± 0.55 kPa | 112 ± 0.61 kPa | 125 ± 0.67 kPa |  | CCOCOCC(C)C [1-(ethoxymethoxy)-2-methylpropane]
 |  | 1.3971 ± 0.0004 | 809.5 ± 0.6 kg/m3 |  |  |  |  |  |  |  |  |  |  |  |  |  | 101.33 ± 0.7 kPa | CCCCO [butan-1-ol]
